Paper PMC11062906 (Nature, 2024)
Each block holds one compound with its values, some of them ahead of it.

How the values were obtained:
BmGr9 [1] = molecular target: T1, BmGr9 (Bombyx mori, UniProt B3GTD7); assay: Cell-based GCaMP calcium flux assay, wild-type BmGr9; conditions: 100 mM sweet compound, HEK293 cells with BmGr9 plus GCaMP vs GCaMP only
BmGr9 [2] = molecular target: T1, BmGr9; assay: Intrinsic tryptophan fluorescence of detergent-solubilized purified BmGr9; type: binding; conditions: titration of purified BmGr9
[3] = molecular target: Bombyx mori gustatory receptor Gr9 (BmGr9) (Bombyx mori) (UniProt B3GTD7); assay: native gel or EMSA; Coomassie-stained denaturing and native gels of purified BmGr9; effective molecular weight approximately 700 kDa including detergent micelle

T1 sequence (B3GTD7 entry or part of it): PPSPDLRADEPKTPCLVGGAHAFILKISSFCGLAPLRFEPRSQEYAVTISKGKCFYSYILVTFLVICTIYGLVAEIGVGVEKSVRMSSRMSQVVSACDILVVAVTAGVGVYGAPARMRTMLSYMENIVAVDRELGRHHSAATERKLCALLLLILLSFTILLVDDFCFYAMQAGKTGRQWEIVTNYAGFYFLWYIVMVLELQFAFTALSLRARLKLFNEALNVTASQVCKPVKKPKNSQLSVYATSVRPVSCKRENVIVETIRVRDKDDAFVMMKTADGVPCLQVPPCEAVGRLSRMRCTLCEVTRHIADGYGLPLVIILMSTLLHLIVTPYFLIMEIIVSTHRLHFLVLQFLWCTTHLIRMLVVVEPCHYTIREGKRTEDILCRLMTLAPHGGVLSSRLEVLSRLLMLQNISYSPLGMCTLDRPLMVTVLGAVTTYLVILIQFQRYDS

- Activation of BmGr9 (change in fluorescence) by sweet compound (BmGr9 [1]): significantly different activity
Compound: OC[C@H]1O[C@H](O[C@]2(CCl)O[C@H](CCl)[C@@H](O)[C@@H]2O)[C@H](O)[C@@H](O)[C@H]1Cl [sucralose]

- blue shift in the tryptophan fluorescence emission spectrum (BmGr9 [2]): did not induce a shift
Compound: OC[C@H]1O[C@@](CO)(O[C@H]2O[C@H](CO)[C@@H](O)[C@H](O)[C@H]2O)[C@@H](O)[C@@H]1O [sucrose]

- stoichiometry N [3]: 4
Compound: Bombyx mori gustatory receptor Gr9 (BmGr9) (from UniProt B3GTD7 2-449)
